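1) Cells in 96-well plates. 2) Compound, 48 h, 5 concentrations. 3) Linear interpolation between surrounding doses. 4) Unreached endpoint = highest concentration. GI50 is the concentration that inhibits growth by half.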 Calls of active or inactive are those of the source. Rule as the data show it: active = GI50 up to about 1.1 µM and inactive = higher.
What was measured:
Assay in all cases: inhibition of tumour cell growth, NCI panel, 48 h
[1] = system: OVCAR-4
[2] = system: HT-29
[3] = system: ACHN
[4] = system: M14
[5] = system: HOP-62
[6] = system: MDA-MB-231
[7] = system: NCI-H460
[8] = system: SK-MEL-2
[9] = system: SF-295
[10] = system: RXF 393
[11] = system: UACC-257
[12] = system: SW-620
[13] = system: SF-268
[14] = system: U-251
[15] = system: SNB-19
[16] = system: SN12C
[17] = system: Malme-3M
[18] = system: RPMI-8226
[19] = system: KM12
[20] = system: T47D

Row | SMILES | GI50 [1] | GI50 [2] | GI50 [3] | GI50 [4] | GI50 [5] | GI50 [6] | GI50 [7] | GI50 [8] | GI50 [9] | GI50 [10] | GI50 [11] | GI50 [12] | GI50 [13] | GI50 [14] | GI50 [15] | GI50 [16] | GI50 [17] | GI50 [18] | GI50 [19] | GI50 [20]
1 | COc1ccc(NC2Oc3cc4c(cc3C(c3cc(OC)c(OC)c(OC)c3)C2C)OCO4)cc1 (stereo not drawn) | 0.566 µM (active) | 0.365 µM (active) | 0.897 µM (active) | 0.294 µM (active) | 0.294 µM (active) | 0.881 µM (active) | 0.429 µM (active) | 0.538 µM (active) | 0.268 µM (active) | 0.437 µM (active) | 0.605 µM (active) | 0.428 µM (active) | 0.959 µM (active) | 0.379 µM (active) | 0.607 µM (active) | 0.541 µM (active) | 0.365 µM (active) | 0.525 µM (active) | 0.381 µM (active) | 
2 | C/C1=C/C2=CC(C)C[C@@H]2C(=O)[C@]2(C)C(=O)CC(C)(C)[C@H]2CC1=O (stereo partly drawn) | > 50 µM (inactive) | > 50 µM (inactive) | > 50 µM (inactive) | > 50 µM (inactive) |  | > 50 µM (inactive) | > 50 µM (inactive) | > 50 µM (inactive) | > 50 µM (inactive) |  | > 50 µM (inactive) | > 50 µM (inactive) | > 50 µM (inactive) | > 50 µM (inactive) | > 50 µM (inactive) | > 50 µM (inactive) | > 50 µM (inactive) | 34.8 µM (inactive) | > 50 µM (inactive) | > 50 µM (inactive)
3 | O=c1n(-c2ccccc2)c(=O)n2n1C1CCC2CC1 |  | > 100 µM (inactive) | > 100 µM (inactive) | > 100 µM (inactive) | > 100 µM (inactive) | > 100 µM (inactive) | > 100 µM (inactive) | > 100 µM (inactive) | > 100 µM (inactive) |  | > 100 µM (inactive) | > 100 µM (inactive) | > 100 µM (inactive) | > 100 µM (inactive) | > 100 µM (inactive) | > 100 µM (inactive) |  | > 100 µM (inactive) | > 100 µM (inactive) | > 100 µM (inactive)
4 | Cc1c2c(C(N)=O)nccc2c(C)c2c1c1ccccc1n2Cc1ccccc1 | 2.61 µM (inactive) | 18.8 µM (inactive) | 16.3 µM (inactive) | 56.2 µM (inactive) | 6.38 µM (inactive) | 9.75 µM (inactive) | 11.6 µM (inactive) | 18.8 µM (inactive) | 10.8 µM (inactive) | 11.9 µM (inactive) | 43.3 µM (inactive) | 17.2 µM (inactive) | 28.4 µM (inactive) | 9.04 µM (inactive) | 14.8 µM (inactive) | 17.7 µM (inactive) |  | 26.8 µM (inactive) | 21.6 µM (inactive) | 29.2 µM (inactive)
5 | COc1cc(N(Cc2ccc3oc(=O)c(-c4ccccc4)nc3c2)Cc2ccc3oc(=O)c(-c4ccccc4)nc3c2)cc(OC)c1OC | > 10 µM (inactive) | > 10 µM (inactive) | > 10 µM (inactive) | > 10 µM (inactive) | > 10 µM (inactive) | > 10 µM (inactive) | > 10 µM (inactive) | > 10 µM (inactive) | > 10 µM (inactive) | > 10 µM (inactive) | > 10 µM (inactive) | > 10 µM (inactive) | > 10 µM (inactive) | > 10 µM (inactive) | > 10 µM (inactive) | > 10 µM (inactive) |  | > 10 µM (inactive) | > 10 µM (inactive) | > 10 µM (inactive)
6 | CC1(C)OCC2OC3([C@H]4OC(C)(C)O[C@@H]4CO)OC(C)(C)OC3C2O1 (stereo partly drawn) | > 100 µM (inactive) | > 100 µM (inactive) | > 100 µM (inactive) | > 100 µM (inactive) | > 100 µM (inactive) | > 100 µM (inactive) | > 100 µM (inactive) | > 100 µM (inactive) | > 100 µM (inactive) | > 100 µM (inactive) | > 100 µM (inactive) | > 100 µM (inactive) |  | > 100 µM (inactive) | > 100 µM (inactive) | > 100 µM (inactive) |  | > 100 µM (inactive) | > 100 µM (inactive) | > 100 µM (inactive)
7 | O=c1[nH]c(=O)n(C2CC(O)C(COP(=O)(OCC(Cl)(Cl)Cl)OCC(Cl)(Cl)Cl)O2)cc1F (stereo not drawn) | > 76 µM (inactive) | 9.23 µM (inactive) | 0.298 µM (active) | 2 µM (inactive) | 0.115 µM (active) | > 47 µM (inactive) | < 0.0226 µM (active) | > 100 µM (inactive) | 0.123 µM (active) |  | > 100 µM (inactive) | > 100 µM (inactive) | 1.24 µM (inactive) | 2.95 µM (inactive) | 7.98 µM (inactive) | 26.1 µM (inactive) | 6.05 µM (inactive) | 3.72 µM (inactive) | > 100 µM (inactive) | > 50.8 µM (inactive)
8 | Cc1c(OCc2cccc3ccccc23)ccc2c(O)cc(=S)oc12 | 29 µM (inactive) | 38.2 µM (inactive) | 34.2 µM (inactive) | 34.8 µM (inactive) | 37.3 µM (inactive) | 46.5 µM (inactive) | 31.8 µM (inactive) | 19.4 µM (inactive) | 29.8 µM (inactive) | 57.9 µM (inactive) | 46.3 µM (inactive) | 39.2 µM (inactive) | 34.1 µM (inactive) | 35.6 µM (inactive) | 37.6 µM (inactive) | 48.4 µM (inactive) |  |  | 29.2 µM (inactive) | 35.2 µM (inactive)
9 | O=c1onc2c3ccccc3ncn12 | > 100 µM (inactive) | > 100 µM (inactive) | > 100 µM (inactive) | > 100 µM (inactive) | > 100 µM (inactive) | > 100 µM (inactive) |  | > 100 µM (inactive) | > 100 µM (inactive) | > 100 µM (inactive) | > 100 µM (inactive) | > 100 µM (inactive) | > 100 µM (inactive) | > 100 µM (inactive) | > 100 µM (inactive) | > 100 µM (inactive) |  | > 100 µM (inactive) | > 100 µM (inactive) | > 100 µM (inactive)
10 | CC1=C(C(=S)Nc2ccc(Cl)c(C(=O)OC(C)C)c2)SCCO1 | 12.3 µM (inactive) | 18.6 µM (inactive) | 25.8 µM (inactive) | 18.8 µM (inactive) |  | 18.2 µM (inactive) | 21.8 µM (inactive) | 21.5 µM (inactive) | 15.7 µM (inactive) |  | 18.5 µM (inactive) | 20.2 µM (inactive) | 25.1 µM (inactive) | 17.6 µM (inactive) | 16.7 µM (inactive) | 16.7 µM (inactive) | 20.3 µM (inactive) | 21.9 µM (inactive) | 19.4 µM (inactive) | 19.6 µM (inactive)
11 | Cc1ccc(S(=O)(=O)N/N=C2/CC[C@H](C(C)(C)C)C[C@@H]2C)cc1 | 0.574 µM (active) | 17.1 µM (inactive) | 16.6 µM (inactive) | 13.7 µM (inactive) | 13.8 µM (inactive) | 21.2 µM (inactive) | 17 µM (inactive) | 17.1 µM (inactive) | 15.8 µM (inactive) |  | 13.9 µM (inactive) | 22.5 µM (inactive) | > 10 µM (inactive) | 17.4 µM (inactive) | 18.5 µM (inactive) | 16.3 µM (inactive) | 16.1 µM (inactive) | 33.4 µM (inactive) | 22.6 µM (inactive) | 10.6 µM (inactive)
12 | CC(O)(CCCCCl)c1nc2ccccc2s1 (stereo not drawn) | > 100 µM (inactive) | 65.9 µM (inactive) | > 100 µM (inactive) | > 100 µM (inactive) | > 100 µM (inactive) | 96.4 µM (inactive) |  | > 100 µM (inactive) | > 100 µM (inactive) |  | > 100 µM (inactive) | > 100 µM (inactive) | 52.8 µM (inactive) | 85.5 µM (inactive) | > 100 µM (inactive) | > 100 µM (inactive) |  | 97.5 µM (inactive) | > 100 µM (inactive) | 29.8 µM (inactive)
13 | O=C1CCCC1CC(CN1CCOCC1)Sc1nnnn1-c1ccccc1 (stereo not drawn) | > 100 µM (inactive) | 31 µM (inactive) | 31 µM (inactive) | > 100 µM (inactive) | > 100 µM (inactive) | 72.3 µM (inactive) |  | > 100 µM (inactive) | > 100 µM (inactive) | 34.6 µM (inactive) | > 100 µM (inactive) | > 100 µM (inactive) |  | > 100 µM (inactive) | > 100 µM (inactive) | > 100 µM (inactive) | > 100 µM (inactive) | 42.1 µM (inactive) | > 100 µM (inactive) | 
14 | C[C@@H]1CC[C@H]2[C@H](C)C(OC3O[C@@H]4O[C@@]5(C)CC[C@H]6[C@H](C)CC[C@@H]([C@@H]3C)[C@@]46O5)O[C@@H]3O[C@@]4(C)CC[C@@H]1[C@]32O4 (stereo partly drawn) | > 100 µM (inactive) | > 100 µM (inactive) | > 100 µM (inactive) | > 100 µM (inactive) | > 100 µM (inactive) | > 100 µM (inactive) | > 100 µM (inactive) | > 100 µM (inactive) | > 100 µM (inactive) |  | > 100 µM (inactive) | > 100 µM (inactive) | > 100 µM (inactive) | > 100 µM (inactive) | > 100 µM (inactive) | > 100 µM (inactive) | > 100 µM (inactive) | > 100 µM (inactive) | > 100 µM (inactive) | > 100 µM (inactive)
15 | O=c1c(C(c2cccnc2)c2c(O)oc3cc(O)ccc3c2=O)c(O)oc2cc(O)ccc12 |  | > 100 µM (inactive) | > 100 µM (inactive) | > 100 µM (inactive) | > 100 µM (inactive) | > 100 µM (inactive) | > 100 µM (inactive) | > 100 µM (inactive) | > 100 µM (inactive) | > 100 µM (inactive) | > 100 µM (inactive) | > 100 µM (inactive) | > 100 µM (inactive) | > 100 µM (inactive) | > 100 µM (inactive) | > 100 µM (inactive) |  | > 100 µM (inactive) | > 100 µM (inactive) | > 100 µM (inactive)

From ChEMBL document CHEMBL1201862, “PubChem BioAssay data set” (2004)
